According to US20180153995A1, “USE OF ANTIMICROBIAL POLYMERS FOR RE-SENSITIZATION OF MICROORGANISMS UPON EMERGENCE OF RESISTANCE TO ANTI-MICROBIAL AGENTS” (Technion Research & Development Foundation Limited, priority 2008, published 2018):
Where two headings read alike, the source gives them in different places.

How the values were obtained:
[1] = tested on: S. maltophila 748; assay: Antibiotic MIC by microdilution with or without sub-MIC polymer; format: cell-based, Stenotrophomonas maltophila
[2] = tested on: E. coli 14182; assay: as above; format: cell-based, Escherichia coli
[3] = tested on: MRSA 15903; assay: microbe, parasite or virus in culture; format: cell-based, Staphylococcus aureus
Experimental: The fractionary inhibitory (FIC) concentration index for combinations of two antimicrobial agents was calculated as follows: FIC index=FICA+FICB=A/MICA+B/MICB where A and B are the MIC values of agent A and agent B in the combination, MICA and MICB are the MICs of agent A and agent B alone, and FICA and FICB are the FICs of agent A and agent B.
The FIC indexes were interpreted as follows: less than 0.5 indicates a clear re-sensitizing effect; from 0.5 to 4 indicates a marginal or null re-sensitizing effect; and over 4 indicates antagonism.
Experimental data for FIG. 4 were obtained as follows.

[4] = tested on: E. coli 16327; assay: microbe, parasite or virus in culture
Experimental: (§1) MICs were determined by microdilution susceptibility testing in 96-well plates (by Nunc) using inocula of 10^5 bacteria per ml. Cell populations were evaluated by optical density measurements at 620 nm and were calibrated against a set of standards. Hundred (100) μl of a bacterial suspension were added to 100 μl of culture medium (control) or to 100 μl of culture medium containing various polymer concentrations in 2-fold serial dilutions. Inhibition of proliferation was determined by optical density measurements at 620 nm after an incubation period of 24 hours at 37° C.
100 μl of a bacterial suspension were added to 100 μl of culture medium (control) or to 100 μl of culture medium containing various antibiotic and C14(9-ene)KKNC12KNH2 (SEQ ID NO: 5) concentrations in 2-fold serial dilutions. Inhibition of proliferation was determined by optical density measurements at 620 nm after an incubation period of 24 hours at 37° C.

[5] = tested on: S. aureus 15819; assay: Antibiotic MIC by microdilution with or without sub-MIC polymer; format: cell-based, Staphylococcus aureus; conditions: S. aureus 15819
[6] = tested on: E. coli K-12 efflux knockout mutant; format: cell-based, Escherichia coli; conditions: E. coli AG100A (efflux−)
Experimental: as §1

[7] = tested on: S. aureus 43300; assay: Antibiotic MIC by microdilution with or without sub-MIC polymer; format: cell-based, Staphylococcus aureus
[8] = tested on: S. aureus 17314; assay: as above; format: cell-based, Staphylococcus aureus; conditions: S. aureus 17314
[9] = +¼ MIC (1.6 μM) C12K(KNC12K)3NH2
[10] = +⅓ MIC (2.1 μM) C12K(KNC12K)3NH2
[11] = +¼ MIC (1.6 μM) C12(5-ene)KKNC12KNH2
[12] = +⅓ MIC (2.1 μM) C12(5-ene)KKNC12KNH2
[13] = +¼ MIC (1.6 μM) C12K(KNC12K)2NH2
[14] = +¼ MIC (1.6 μM) C14(9-ene)KKNC12KNH2
[15] = +¼ MIC (1.6 μM) C16(9-ene)KKNC12KNH2
[16] = +½ MIC (3.12 μM) C12K(KNC12K)2NH2
[17] = +½ MIC (3.12 μM) C14(9-ene)KKNC12KNH2
[18] = +½ MIC (3.12 μM) C16(9-ene)KKNC12KNH2
[19] = +⅓ MIC (2.1 μM) C12K(KNC12K)2NH2
[20] = +⅓ MIC (2.1 μM) C14(9-ene)KKNC12KNH2
[21] = +⅓ MIC (2.1 μM) C16(9-ene)KKNC12KNH2

For CC[C@H]1OC(=O)[C@H](C)[C@@H](O[C@H]2C[C@@](C)(OC)[C@@H](O)[C@H](C)O2)[C@H](C)[C@@H](O[C@@H]2O[C@H](C)C[C@H](N(C)C)[C@H]2O)[C@](C)(O)C[C@@H](C)C(=O)[C@H](C)[C@@H](O)[C@]1(C)O [Erythromycin, erythromycin], the “Antibiotic MIC” value [1, 9] was 512 mg/L, the “Antibiotic MIC” value [1, 10] was 512 mg/L and the “Antibiotic MIC” value ([1]; no polymer (None), Table 13) was 512 mg/L. For the same molecule, the “Antibiotic MIC” value ([2]; +½ MIC C12K(NC8K)5NH2) was 8 to 16 mg/L, the “Antibiotic MIC” value ([2]; +⅓ MIC C12K(NC8K)5NH2) was 32 to 64 mg/L and the “Antibiotic MIC in presence of C12K(NC8K)7NH2 (SEQ ID NO: 4), +¼ MIC” value ([2]; polymer at ¼ of its MIC) was 32 mg/L. For the same molecule, the “Antibiotic MIC in presence of C12K(NC8K)7NH2 (SEQ ID NO: 4), +½ MIC” value (“Antibiotic MIC … (SEQ ID NO: 4), +½ MIC” below) ([2]; polymer at ½ of its MIC) was 8 mg/L, the “Antibiotic MIC in presence of C12K(NC8K)7NH2 (SEQ ID NO: 4), +⅓ MIC” value ([2]; polymer at ⅓ of its MIC) was 16 mg/L and the MIC ([3]; MRSA 15903, +¼ polymer MIC (1.6 μM) NC12(KNC12K)2NH2) was 1 mg/L. For the same molecule, the MIC ([3]; MRSA 15903, +½ polymer MIC (3.1 μM) NC12(KNC12K)2NH2) was 0.016 mg/L, the “MIC, ½ + MIC OAK” value ([3]; MRSA 15903, with C12K(KNC10K)3NH2 (SEQ ID NO: 10) at ½ of its MIC) was 0.13 to 0.25 mg/L and the “MIC, ⅓ + MIC OAK” value ([3]; MRSA 15903, with C12K(KNC10K)3NH2 (SEQ ID NO: 10) at ⅓ of its MIC) was 0.5 mg/L. The MIC ([3]; S. aureus CI-15903, +polymer (¼ MIC) C12(5-ene)KKNC12KNH2) was 0.5 mg/L, the MIC ([3]; S. aureus CI-15903, +polymer (½ MIC) C12(5-ene)KKNC12KNH2) was 0.1 mg/L and the MIC ([3]; S. aureus CI-15903, +polymer (⅓ MIC) C12(5-ene)KKNC12KNH2) was 0.1 mg/L. It also gave an MIC ([3]; Staphylococcus aureus, MRSA, 24 h, MRSA 15903, antibiotic alone (Table 22), read-out: MIC, Alone) of 1 mg/L, an MIC ([3]; Staphylococcus aureus, MRSA, 24 h, MRSA 15903, antibiotic alone, read-out: MIC) of 0.5 mg/L and an MIC ([3]; Staphylococcus aureus, MRSA, 24 h, S. aureus CI-15903, alone, read-out: MIC) of 0.5 mg/L. The “MIC, ½ + MIC OAK” value ([4]; E. coli U16327, with C12K(KNC10K)3NH2 (SEQ ID NO: 10) at ½ of its MIC) was 4 to 8 mg/L, the “MIC, ⅓ + MIC OAK” value ([4]; E. coli U16327, with C12K(KNC10K)3NH2 (SEQ ID NO: 10) at ⅓ of its MIC) was 8 mg/L and the “Antibiotic MIC … (SEQ ID NO: 4), +½ MIC” value ([4]; E. coli U-16327, polymer at ½ of its MIC) was 32 mg/L. For the same molecule, the “Antibiotic MIC” value [5, 11] was 0.25 mg/L, the “Antibiotic MIC” value [5, 9] was 0.5 mg/L and the “Antibiotic MIC” value ([5]; +¼ MIC (1.6 μM) C12KKNC12KNH2) was 0.5 mg/L. The “Antibiotic MIC” value ([5]; +½ MIC (3.12 μM) C12(5-ene)KKNC12KNH2) was 0.25 mg/L, the “Antibiotic MIC” value ([5]; +½ MIC (3.12 μM) C12KKNC12KNH2) was 0.5 mg/L and the “Antibiotic MIC” value [5, 12] was 0.25 mg/L. For the same molecule, the “Antibiotic MIC” value [5, 10] was 0.25 mg/L, the “Antibiotic MIC” value ([5]; +⅓ MIC (2.1 μM) C12KKNC12KNH2) was 0.5 mg/L and the “Antibiotic MIC” value ([5]; no polymer (None), Table 8) was 0.25 mg/L. The “Antibiotic MIC” value ([5]; no polymer (None), Table 11) was 0.5 mg/L, the “Antibiotic MIC” value ([5]; no polymer (None), Table 13) was 0.5 mg/L and the “Antibiotic MIC, None” value ([6]; antibiotic alone (Table 16)) was 4 to 8 mg/L. For the same molecule, the “Antibiotic MIC, None” value ([6]; antibiotic alone (Table 17)) was 4 to 8 mg/L, the “Antibiotic MIC in presence of C12K(NC8K)7NH2 (SEQ ID NO: 4), +¼ MIC” value ([6]; polymer at ¼ of its MIC (Table 16)) was 4 to 8 mg/L and the “Antibiotic MIC … (SEQ ID NO: 4), +½ MIC” value ([6]; polymer at ½ of its MIC (Table 16)) was 2 mg/L. The “Antibiotic MIC in presence of C12K(NC8K)7NH2 (SEQ ID NO: 4), +⅓ MIC” value ([6]; polymer at ⅓ of its MIC (Table 16)) was 2 to 4 mg/L, the “Antibiotic MIC in presence of the OAK, +¼ MIC” value ([6]; the OAK at ¼ of its MIC (Table 17)) was 4 to 8 mg/L and the “Antibiotic MIC in presence of the OAK, +½ MIC” value ([6]; the OAK at ½ of its MIC (Table 17)) was 1 to 2 mg/L. For the same molecule, the “Antibiotic MIC in presence of the OAK, +⅓ MIC” value ([6]; the OAK at ⅓ of its MIC (Table 17)) was 4 mg/L, the “Antibiotic MIC” value [7, 11] was 512 mg/L and the “Antibiotic MIC” value [7, 13] was >512 mg/L. The “Antibiotic MIC” value ([7]; +¼ MIC (1.6 μM) C12KKNC12KNH2) was >512 mg/L, the “Antibiotic MIC” value [7, 14] was >512 mg/L and the “Antibiotic MIC” value [7, 15] was 512 mg/L. For the same molecule, the “Antibiotic MIC” value [7, 16] was >512 mg/L, the “Antibiotic MIC” value ([7]; +½ MIC (3.12 μM) C12KKNC12KNH2) was >512 mg/L and the “Antibiotic MIC” value [7, 17] was >512 mg/L. The “Antibiotic MIC” value [7, 18] was 512 mg/L, the “Antibiotic MIC” value [7, 12] was 512 mg/L and the “Antibiotic MIC” value [7, 19] was >512 mg/L. For the same molecule, the “Antibiotic MIC” value ([7]; +⅓ MIC (2.1 μM) C12KKNC12KNH2) was >512 mg/L, the “Antibiotic MIC” value [7, 20] was >512 mg/L and the “Antibiotic MIC” value [7, 21] was 512 mg/L. For the same molecule, the “Antibiotic MIC” value ([7]; no polymer (None), Table 8) was 512 mg/L, the “Antibiotic MIC” value ([7]; no polymer (None), Table 9) was >512 mg/L and the “Antibiotic MIC” value ([7]; no polymer (None), Table 10) was 512 mg/L. The “Antibiotic MIC” value ([7]; no polymer (None), Table 11) was >512 mg/L, the “Antibiotic MIC” value ([7]; no polymer (None), Table 12) was >512 mg/L and the “Antibiotic MIC” value [8, 13] was 1 mg/L. For the same molecule, the “Antibiotic MIC” value ([8]; +¼ MIC (1.6 μM) C12KKNC12KNH2) was 1 mg/L, the “Antibiotic MIC” value [8, 14] was 1 mg/L and the “Antibiotic MIC” value [8, 15] was 1 mg/L. For the same molecule, the “Antibiotic MIC” value [8, 16] was 0.5 to 1 mg/L, the “Antibiotic MIC” value ([8]; +½ MIC (3.12 μM) C12KKNC12KNH2) was 1 mg/L and the “Antibiotic MIC” value [8, 17] was 1 mg/L. For the same molecule, the “Antibiotic MIC” value [8, 18] was 0.5 mg/L, the “Antibiotic MIC” value [8, 19] was 0.5 to 1 mg/L and the “Antibiotic MIC” value ([8]; +⅓ MIC (2.1 μM) C12KKNC12KNH2) was 1 mg/L. The “Antibiotic MIC” value [8, 20] was 1 mg/L, the “Antibiotic MIC” value [8, 21] was 1 mg/L and the “Antibiotic MIC” value ([8]; no polymer (None), Table 9) was 1 mg/L. For the same molecule, the “Antibiotic MIC” value ([8]; no polymer (None), Table 10) was 1 mg/L, the “Antibiotic MIC” value ([8]; no polymer (None), Table 11) was 1 mg/L and the “Antibiotic MIC” value ([8]; no polymer (None), Table 12) was 1 mg/L.
